Broadly, the ΔTm is the shift of the melting midpoint relative to a reference. What is called GI50 is the concentration at which growth is held to half of that of the control.

For the first experiment, the target named is T1, recombinant USP1 protein (Homo sapiens, UniProt O94782, DEL125-138/DEL229-408/DEL608-737).
T1 sequence (O94782 with tags, fused parts or gaps DEL125-138/DEL229-408/DEL608-737): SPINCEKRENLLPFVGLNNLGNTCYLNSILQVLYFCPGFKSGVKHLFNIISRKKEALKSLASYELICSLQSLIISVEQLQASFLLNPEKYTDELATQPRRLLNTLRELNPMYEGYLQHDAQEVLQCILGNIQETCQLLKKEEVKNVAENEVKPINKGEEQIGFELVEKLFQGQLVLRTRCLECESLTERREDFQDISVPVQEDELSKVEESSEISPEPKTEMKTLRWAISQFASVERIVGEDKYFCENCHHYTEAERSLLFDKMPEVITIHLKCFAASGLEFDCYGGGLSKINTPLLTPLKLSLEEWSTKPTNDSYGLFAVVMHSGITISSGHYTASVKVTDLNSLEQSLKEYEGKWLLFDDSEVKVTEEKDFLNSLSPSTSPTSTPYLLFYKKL
Briefly: Binding affinity to recombinant USP1 protein by differential scanning fluorimetry. Conditions: compound 100 µM; 0.03 mg/mL USP1 (Δ1-66, Δ125-138, Δ229-408, Δ608-737); Tm with compound minus Tm with DMSO. How it is done: <Experimental Example 1> Confirmation and evaluation of the binding affinity to recombinant USP1 protein
To evaluate the binding affinity of the compounds of the present invention to the USP1 protein, the following experiment was performed using differential scanning fluorimetry.
Recombinant 0.03 mg/mL USP1 (Δ1-66, Δ125-138, Δ229-408, Δ608-737) protein, dye reagent, and buffer solution (50 mM Tris-HCl pH 8.0, 150 mM NaCl, 2% glycerol, 1 mM DTT) were mixed and 19 µL of the mixture was dispensed into a well plate (MicroAmp Fast 96-Well Reaction plate, 0.1 mL). Each compound was injected at a final concentration of 100 µM in an amount of 1 µL, and the plate containing a total of 20 µL was sealed with MicroAmp Optical Adhesive Film. The melting temperature (Tm) of the protein in each well was measured using a real-time PCR (RT-PCR) device. The difference between the Tm of the sample containing the compound and the Tm containing DMSO is referred to as delta Tm (ΔTm), where a larger ΔTm value indicates stronger binding affinity. The degree of temperature at which the protein is modified in the presence of the compound compared to DMSO was calculated according to Equation 1 below: [formula]
In general terms: Differential scanning fluorimetry follows unfolding on heating by fluorescence.
Turning to “2-(4-cyclopropyl-6-ethoxypyrimidi n-5-yl)-7-(4-(1-isopropyl-4-(trifluorometh yl)-1H-imidazol-2-yl)benzyl)-N-methyl-7H-pyrrolo[2,3-d]pyrimidine-6-carboxamide [Example 63]”, the “ΔTm (°C)” value is “A (ΔTm (°C) > 5 °C)”.

Still in this experiment, the particulars now being: compound 100 µM; 0.03 mg/mL USP1 (Δ1-66, Δ125-138, Δ229-408, Δ608-737); Tm with compound minus Tm with DMSO; read-out: ΔTm (°C).
For the compound `CNC(=O)c1cc2cnc(-c3c(OC)ncnc3C3CC3)nc2n1Cc1ccc(-c2nc(C(F)(F)F)cn2C(C)C)cc1` [Example 1, 2-(4-cyclopropyl-6-methoxypyrimidin-5-yl)-7-(4-(1-isopropyl-4-(trifluoromethyl)-1H-imidazol-2-yl)benzyl)-N-methyl-7H-pyrrolo[2,3-d]pyrimidine-6-carboxamide], the ΔTm at 100 µM is above 5 °C.

For `CNC(=O)c1cc2cnc(-c3ccccc3C(C)C)nc2n1Cc1ccc(-c2nc(C(F)(F)F)cn2C(C)C)cc1` [Example 2, 7-(4-(1-isopropyl-4-(trifluoromethyl)-1H-imidazol-2-yl)benzyl)-2-(2-isopropylphenyl)-N-methyl-7H-pyrrolo[2,3-d]pyrimidine-6-carboxamide], the ΔTm at 100 µM was above 5 °C. Consider `COc1ncnc(C2CC2)c1-c1ncc2cc(C(=O)NCCN3CCNCC3)n(Cc3ccc(-c4nc(C(F)(F)F)cn4C(C)C)cc3)c2n1` [Example 98, 2-(4-cyclopropyl-6-methoxypyrimidin-5-yl)-7-(4-(1-isopropyl-4-(trifluoromethyl)-1H-imidazol-2-yl)benzyl) -N-(2-(piperazin-1-yl)ethyl)-7H-pyrrolo[2,3-d]pyrimidine-6-carboxamide], for which the ΔTm at 100 µM is above 5 °C. In the case of `COc1ncnc(C2CC2)c1-c1ncc2cc(C(=O)N(C)C3CNC3)n(Cc3ccc(-c4nc(C(F)(F)F)cn4C(C)C)cc3)c2n1` [Example 103, N-(azetidin-3-yl)-2-(4-cyclopropyl-6-methoxypyrimidin-5-yl)-7-(4-(1-isopropyl-4-(trifluoromethyl) -1H-imidazol-2-yl)benzyl)-N-methyl-7H-pyrrolo[2,3-d]pyrimidine-6-carboxamide], the ΔTm at 100 µM is above 5 °C. `COc1ncnc(C2CC2)c1-c1ncc2cc(C(=O)N3CCCC3(C)C)n(Cc3ccc(-c4nc(C(F)(F)F)cn4C(C)C)cc3)c2n1` [Example 107, (2-(4-cyclopropyl-6-methoxypyrimid in-5-yl)-7-(4-(1-isopropyl-4-(trifluoromethyl)-1H-imidazol-2-yl)benzyl)-7H-pyrrolo[2,3-d]pyrimidin-6-yl)(2,2-dimethylpyrrolidin-1-yl)methanone]: the ΔTm at 100 µM was above 5 °C. Turning to `COc1ncnc(C2CC2)c1-c1ncc2cc(C(=O)NO)n(Cc3ccc(-c4nc(C(F)(F)F)cn4C(C)C)cc3)c2n1` [Example 120, 2-(4-cyclopropyl-6-methoxypyrimidin-5-yl)-N-hydroxy-7-(4-(1-isopropyl-4-(trifluoromethyl)-1H-imidazol-2-yl)benzyl)-7H-pyrrolo[2,3-d]pyrimidine-6-carboxamide], the ΔTm at 100 µM was above 5 °C. In the case of `COCCN1CC[C@@H](NC(=O)c2cc3cnc(-c4c(OC)ncnc4C4CC4)nc3n2Cc2ccc(-c3nc(C(F)(F)F)cn3C)cc2)[C@@H](F)C1` [Example 160, 2-(4-cyclopropyl-6-methoxypyrimidin-5-yl)-N-((3S,4R)-3-fluoro-1-(2-methoxyethyl)piperidin-4-yl)-7-(4-(1-methyl-4-(trifluoromethyl)-1H-imidazol-2-yl)benzyl)-7H-pyrrolo[2,3-d]pyrimidine-6-carboxamide], the ΔTm at 100 µM is above 5 °C. As for `COc1ncnc(C2CC2)c1-c1ncc2cc(C(=O)N3CCCC3)n(Cc3ccc(-c4nc(C(F)(F)F)cn4C)cc3)c2n1` [Example 192, (2-(4-cyclopropyl-6-methoxypyrimid in-5-yl)-7-(4-(1-methyl-4-(trifluoromethyl)-1H-imidazol-2-yl)benzyl)-7H-pyrrolo[2,3-d]pyrimidin-6-yl) (pyrrolidin-1-yl)methanone], the ΔTm at 100 µM is above 5 °C.

`CNC(=O)c1cc2cnc(-c3c(O)ncnc3C3CC3)nc2n1Cc1ccc(-c2nc(C(F)(F)F)cn2C)cc1` [Example 206, 2-(4-cyclopropyl-6-hydroxypyrimidin-5-yl)-N-methyl-7-(4-(1-methyl-4-(trifluoromethyl)-1H-imidazol-2-yl)benzyl)-7H-pyrrolo[2,3-d]pyrimidine-6-carboxamide]: the shift in melting temperature (ΔTm) at 100 µM is below 5 °C. As to `CNC(=O)c1cc2cnc(-c3c(OC)ncnc3C3CC3)nc2n1Cc1ccc(-n2nc(C(F)(F)F)cc2C(=O)O)cc1` [Example 213, 1-(4-((2-(4-cyclopropyl-6-methoxypyrimidin-5-yl)-6-(methylcarbamoyl)-7H-pyrrolo[2,3-d]pyrimidin-7-yl)methyl)phenyl)-3-(trifluoromethyl)-1H-pyrazol-5-carboxylic acid], the ΔTm at 100 µM was below 5 °C. For `CNC(=O)c1cc2cnc(-c3c(OC)ncnc3C3CC3)nc2n1CC12CCC(c3nc(C(F)(F)F)cn3C(C)C)(CC1)CO2` [Example 226, 2-(4-cyclopropyl-6-methoxypyrimidin-5-yl)-7-(((1s,4s)-4-(1-isopropyl-4-(trifluoromethyl)-1H-imidazol-2-yl)-2-oxabicyclo[2.2 .2]octan-1-yl)methyl)-N-methyl-7H-pyrrolo[2,3-d]pyrimidine-6-carboxamide], the ΔTm at 100 µM was below 5 °C.

In a further experiment the test system is UWB1.289 cells. Briefly: Cell proliferation inhibitory activity in BRCA1/2-mutant or HRD-positive cells (Cell Titer-Glo). The class given is cell-based. Conditions: UWB1.289 cells, 144 hours after compound treatment, Cell Titer-Glo, 1.5 nM to 10 µM; read-out: GI50 UWB1.289 BRCA1 mut. How it is done:
<Experimental Example 2> Evaluation of Cell Proliferation Inhibitory Activity in BRCA1/2-Mutant or HRD-Positive Cells
To evaluate the inhibitory activity of the compound according to the present invention on the proliferation of BRCA1/2 mutants or homologous recombination deficient (HRD) positive cell lines, the following experiments were performed. UWB1.289 cells were cultured in medium (50% MEBM + 50% RPMI1640), and 1,000 cells were seeded in a well plate (black clear bottom 96-well plate, Corning) 16 to 24 hours prior to compound treatment. The compounds were diluted in dimethyl sulfoxide (3-fold serial dilution starting at 10 µM, for a total of 10 concentrations) and injected at 1 µl per well, resulting a final concentration range of […] to 10 µM. Measurements of live cells were performed by a reaction in a 37 °C and CO2 incubator for 144 hours after compound treatment. The cells were incubated for 10 minutes in an incubator using Cell Titer-Glo luminescent cell-viability reagent (Promega), and luminescence intensity thereof was measured using a reader (SynergyNeo2, Biotek). GI50 values were calculated using the GraphPad Prism version 8.4.3 (GraphPad software Inc., San Diego) program.
For the compound “2-(4-cyclopropyl-6-ethoxypyrimidi n-5-yl)-7-(4-(1-isopropyl-4-(trifluorometh yl)-1H-imidazol-2-yl)benzyl)-N-methyl-7H-pyrrolo[2,3-d]pyrimidine-6-carboxamide [Example 63]”, the GI50 was below 100 nM. For “2-(4-cyclopropyl-6-methoxypyrimid in-5-yl)-N-((3,3-difluorocyclob utyl)methyl) - 7-(4-(1-isopropyl-4-(trifluorometh yl)-1H-imidazol-2-yl)benzyl)-7H-pyrrolo[2,3-d]pyrimidine-6-carboxamide [Example 84]”, the 50% growth inhibitory concentration (GI50) lay in the range of 100 to 500 nM.

Staying with this experiment, now noted: UWB1289; UWB1.289 cells, 144 hours after compound treatment, Cell Titer-Glo, 1.5 nM to 10 µM; read-out: GI50 UWB1.289 BRCA1 mut.
Consider `CNC(=O)c1cc2cnc(-c3c(OC)ncnc3C3CC3)nc2n1Cc1ccc(-c2nc(C(F)(F)F)cn2C(C)C)cc1` [Example 1, 2-(4-cyclopropyl-6-methoxypyrimidin-5-yl)-7-(4-(1-isopropyl-4-(trifluoromethyl)-1H-imidazol-2-yl)benzyl)-N-methyl-7H-pyrrolo[2,3-d]pyrimidine-6-carboxamide], for which the GI50 is below 100 nM. On to `CNC(=O)c1cc2cnc(-c3ccccc3C(C)C)nc2n1Cc1ccc(-c2nc(C(F)(F)F)cn2C(C)C)cc1` [Example 2, 7-(4-(1-isopropyl-4-(trifluoromethyl)-1H-imidazol-2-yl)benzyl)-2-(2-isopropylphenyl)-N-methyl-7H-pyrrolo[2,3-d]pyrimidine-6-carboxamide], for which the GI50 is below 100 nM. For the compound `CC[C@@H](C)NC(=O)c1cc2cnc(-c3c(OC)ncnc3C3CC3)nc2n1Cc1ccc(-c2nc(C(F)(F)F)cn2C(C)C)cc1` [Example 92, (R)-N-(sec-butyl)-2-(4-cyclopropyl-6-methoxypyrimidin-5-yl)-7-(4-(1-isopropyl-4-(trifluoromethyl)-1H-imidazol-2-yl)benzyl)-7H-pyrrolo[2,3-d]pyrimidine-6-carboxamide], the GI50 is below 100 nM. Turning to `COc1ncnc(C2CC2)c1-c1ncc2cc(C(=O)NC[C@H]3CCCN3C)n(Cc3ccc(-c4nc(C(F)(F)F)cn4C(C)C)cc3)c2n1` [Example 136, (R) -2-(4-cyclopropyl-6-methoxypyrimidin-5-yl)-7-(4-(1-isopropyl-4-(trifluoromethyl)-1H-imidazol-2-yl)benzyl)-N-((1-methylpyrrolidin-2-yl)methyl)-7H-pyrrolo[2,3-d]pyrimidine-6-carboxamide], the GI50 was below 100 nM.

For the compound `COc1ncnc(C2CC2)c1-c1ncc2cc(C(N)=O)n(Cc3ccc(-c4nc(C(F)(F)F)cn4C)cc3)c2n1` [Example 148, 2-(4-cyclopropyl-6-methoxypyrimidin-5-yl)-7-(4-(1-methyl-4-(trifluoromethyl)-1H-imidazol-2-yl)benzyl)-7H-pyrrolo[2,3-d]pyrimidine-6-carboxamide], the GI50 was below 100 nM.

For the compound `COc1ncnc(C2CC2)c1-c1ncc2cc(C(=O)NC3CCNCC3)n(Cc3ccc(-c4nc(C(F)(F)F)cn4C(C)C)cc3)c2n1` [Example 159, 2-(4-cyclopropyl-6-methoxypyrimidin-5-yl)-7-(4-(1-isopropyl-4-(trifluoromethyl)-1H-imidazol-2-yl)benzyl)-N-(piperidin-4-yl)-7H-pyrrolo[2,3-d]pyrimidine-6-carboxamide], the GI50 lay in the range of 100 to 500 nM.

For the origin of these results see patent publication EP4806898A1, “HETEROARYL DERIVATIVE COMPOUND AND USE THEREOF” (Voronoi Inc., priority 2023, dated 2025).
